Assays:
VEGFR2 = VEGFR2 glycosylation in HUVEC (Western blot scoring); type: cell-based, human; settings: for Glycosylation (2 μM dose): VEGFR2 hypoglycosylation score in HUVEC, 24 h; for VEGFR2 glycosylation defect: data not shown
Experimental: VEGFR2 hypoglycosylation was scored either robust (++), intermediate (+), or absent (−) (FIG. 6).
HUVEC were seeded at 5×10^4 per well of a 6-well plate in 3 mL of media. After an overnight recovery, the media was replaced with 2 mL fresh media and the analogs were added from 200× stocks in DMSO. Following a 24-h incubation, the media was aspirated and 2×SDS sample buffer was added to the cells which were incubated on ice for 10 min and then boiled for 10 min. […] Following three washes in TBS-T, the membrane was incubated with anti-rabbit horseradish peroxidase conjugated IgG (GE Healthcare) (1:5000-1:10000 dilution) in 1% BSA in TBS-T. The membranes were washed three times in TBS-T, incubated for 1-5 minutes with ECL substrate (Immobilon Wester, Milipore) and visualized (Kodak Image Staion 440 CF).

[1] = tested on: MB cultures derived from Ptch−/+; p53−/− mice; test: Medulloblastoma (MB) proliferation assay; type: cell-based, mouse; settings: for MB Proliferation (IC50/IC50 Itra): mouse medulloblastoma cultures, 96 h, relative to itraconazole; for inhibition of MB proliferation: FIG. 9A
From the text: These cultures were derived from Ptch^−/+; p53^−/− mice that spontaneously develop medulloblastoma associated with ligand independent Hh pathway activation.
MB cultures were derived from mouse Ptch^−/+; p53^−/− MB grown as hind-flank allografts in nude mice (Harlan). Briefly, tumors were mechanically disrupted and made into single cell suspensions by two passages through a 70 μm nylon filter. Cells were pelleted by centrifugation and resuspended in PBS pH 7.4 twice. The cell suspension was then subjected to centrifugation at 1000×g for 25 min over a ficoll gradient. The viable cell layer formed at the ficoll boundary was then collected, suspended in PBS, and pelleted by centrifugation. The resulting pellet was then suspended and cultured as “neurospheres” in Neurobasal Media-A supplemented with retinoic acid deficient B-27 extract (NBMedia). Cells were cultured for three passages, with neurospheres disaggregated using Accumax (Innovative Cell Technologies) between passages.
Cultured MB neurospheres were disaggregated as described and 1×10^4 cells were seeded into wells of a 96-well assay plate in NBMedia and exposed to multiple analogue concentrations: Relative cell numbers following a 96-h incubation were quantified by CellTiter 96® AQueous One Solution Cell Proliferation Assay (Promega) per manufacturer's recommendations using a SpectraMax M2e spectrophotometer and SoftMax Pro software (Molecular Devices). Data was analyzed using Prism5 (GraphPad Software) and IC50 and IC90 values were determined from dose-response curves fitted to mean corrected absorbance normalized to control treatment.

HUVEC = HUVEC proliferation assay ([3H]thymidine incorporation); type: cell-based, human; settings: for Proliferation (IC50/IC50 Itra) / IC50: HUVEC; for Proliferation (IC50/IC50 Itra): IC50 of analog relative to IC50 of itraconazole; for IC50: Homo sapiens, Table 5, read-out: Activity in HUVEC Proliferation IC50; for inhibition of HUVEC proliferation: data not shown
Experimental: The activity of the analogs against HUVEC proliferation, an in vitro proxy for angiogenesis inhibition (Table 3) was analyzed. […]
Pooled HUVEC (Lonza) were grown in EGM-2 bullet kit media (Lonza) and used at passage eight or lower. The proliferation assays were conducted as previously described (Nacev, B.; Low, W. K.; Huang, Z.; Su, T.; Su, Z.; Alkuraya, H.; Kasuga, D.; Sun, W.; Trager, M.; Braun, M.; Fischer, G.; Zhang, K.; Liu, J. O., Acalcineurin-independent mechanism of angiogenesis inhibition by anon-immunosuppressive Cyclosporin Aanalog. J. Pharmacol. Exp. Ther. 2011, DOI:10.1124/jpet.111.18085).

Gli1 transcript = test: Quantification of Gli1 transcript by TaqMan analysis in MB cells (Hh pathway); type: cell-based, mouse; settings: for Gli I Inhibition (IC90 Prolif. dose): Gli1 transcript fold induction score, MB cells exposed 24 h at the IC90 for MB proliferation; for inhibition of Gli1 transcript levels: established MB cultures, FIG. 9B
From the text: Inhibitors of the Hh pathway are known to inhibit MB cell proliferation. However, MB cell proliferation is also affected by drugs with targets other than Hh signaling.
Following drug exposure, cells were washed in PBS and pelleted by centrifugation at 300×g. Cell pellets were lysed in Trizol reagent (Invitrogen). Total RNA was separated and collected in the aqueous phase following centrifugation of lysate in the presence of chloroform. Total RNA was ethanol precipitated and purified over RNeasy Mini Kit (Qiagen) filter columns per manufacturer's recommendations. Transcript levels were quantified using gene-specific TaqMan primer/probe sets and the StepOne Plus Real-Time PCR system (Applied Biosystems) on cDNA reverse transcribed using the QuantiTect Reverse Transcription Kit (Qiagen) per manufacturers' recommendations. Results were quantified using StepOne Plus software v2.1 (Applied Biosystems) and were expressed as fold induction relative to control samples using the A ΔCt (2^−ΔΔCt) method with actin as an internal control. The primer/probe set (Applied Biosystems) for TaqMan PCR for mouse Gli-1 was Mm00494645_m1, and for mouse actin was Mm00607939_s1.

Row | Compound | Glycosylation (2 μM dose) (VEGFR2) | MB Proliferation (IC50/IC50 Itra) [1] | Proliferation (IC50/IC50 Itra) (HUVEC) | Gli I Inhibition (IC90 Prolif. dose) (Gli1 transcript) | other results
1 | Cn1ncn(-c2ccc(N3CCN(c4ccc(OC[C@@H]5CO[C@@](Cn6cncn6)(c6ccc(Cl)cc6Cl)O5)cc4)CC3)cc2)c1=O (relative stereo) [Compound 7a, cis-(2S,4R)-4-[4-[4-[4-[[2-(2,4-Dichlorophenyl)-2-(UH-1,2,4-triazol-1-ylmethyl)-1,3-dioxolan-4-yl]methoxy]phenyl]-lpiperazinyl]phenyl]-2,4-dihydro-2-methyl-3H-1,2,4-triazol-3-one] | − | 2.71 | 4.00 | − (≥0.45) | 
2 | CCn1ncn(-c2ccc(N3CCN(c4ccc(OC[C@@H]5CO[C@@](Cn6cncn6)(c6ccc(Cl)cc6Cl)O5)cc4)CC3)cc2)c1=O (relative stereo) [Compound 7b, cis-(2S,4R)-4-[4-[4-[4-[[2-(2,4-Dichlorophenyl)-2-(1H-1,2,4-triazol-1-ylmethyl)-1,3-dioxolan-4-yl]methoxy]phenyl]-lpiperazinyl]phenyl]-2,4-dihydro-2-ethyl-3H-1,2,4-triazol-3-one] | − | 1.62 | 2.94 | − (≥0.45) | 
3 | CCCn1ncn(-c2ccc(N3CCN(c4ccc(OC[C@@H]5CO[C@@](Cn6cncn6)(c6ccc(Cl)cc6Cl)O5)cc4)CC3)cc2)c1=O (relative stereo) [Compound 7c, cis-(2S,4R)-4-[4-[4-[4-[[2-(2,4-Dichlorophenyl)-2-(1H-1,2,4-triazol-1-ylmethyl)-1,3-dioxolan-4-yl]methoxy]phenyl]-lpiperazinyl]phenyl]-2,4-dihydro-2-propyl-3H-1,2,4-triazol-3-one] | + | 1.01 | 1.06 | ++ (≤0.15) | 
4 | CC(C)n1ncn(-c2ccc(N3CCN(c4ccc(OC[C@@H]5CO[C@@](Cn6cncn6)(c6ccc(Cl)cc6Cl)O5)cc4)CC3)cc2)c1=O (relative stereo) [Compound 7d, cis-(2S,4R)-4-[4-[4-[4-[[2-(2,4-Dichlorophenyl)-2-(1H-1,2,4-triazol-1-ylmethyl)-1,3-dioxolan-4-yl]methoxy]phenyl]-lpiperazinyl]phenyl]-2,4-dihydro-2-isopropyl-3H-1,2,4-triazol-3-one] | − | 1.06 | 2.18 | − (≥0.45) | 
5 | CCCCn1ncn(-c2ccc(N3CCN(c4ccc(OC[C@@H]5CO[C@@](Cn6cncn6)(c6ccc(Cl)cc6Cl)O5)cc4)CC3)cc2)c1=O (relative stereo) [Compound 7e, cis-(2S,4R)-4-[4-[4-[4-[[2-(2,4-Dichlorophenyl)-2-(1H-1,2,4-triazol-1-ylmethyl)-1,3-dioxolan-4-yl]methoxy]phenyl]-lpiperazinyl]phenyl]-2,4-dihydro-2-butyl-3H-1,2,4-triazol-3-one] | − | 0.70 | 2.10 | − (≥0.45) | 
6 | CC(C)Cn1ncn(-c2ccc(N3CCN(c4ccc(OC[C@@H]5CO[C@@](Cn6cncn6)(c6ccc(Cl)cc6Cl)O5)cc4)CC3)cc2)c1=O (relative stereo) [Compound 7f, cis-(2S,4R)-4-[4-[4-[4-[[2-(2,4-Dichlorophenyl)-2-(H,2,4-triazol-1-ylmethyl)-1,3-dioxolan-4-yl]methoxy]phenyl]-lpiperazinyl]phenyl]-2,4-dihydro-2-isobutyl-3H-1,2,4-triazol-3-one] | ++ | 0.86 | 1.32 | − (≥0.45) | 
7 | CCCC(C)n1ncn(-c2ccc(N3CCN(c4ccc(OC[C@@H]5CO[C@@](Cn6cncn6)(c6ccc(Cl)cc6Cl)O5)cc4)CC3)cc2)c1=O (relative stereo) [Compound 7h, cis-(2S,4R)-4-[4-[4-[4-[[2-(2,4-Dichlorophenyl)-2-(1H-1,2,4-triazol-1-ylmethyl)-1,3-dioxolan-4-yl]methoxy]phenyl]-lpiperazinyl]phenyl]-2,4-dihydro-2-(1-methylbutyl)-3H-1,2,4-triazol-3-one] | ++ | 0.38 | 0.75 | ++ (≤0.15) | 
8 | O=C(c1ccccc1)c1ccc(OCCCCCCn2ncn(-c3ccc(N4CCN(c5ccc(OCC6COC(Cn7cncn7)(c7ccc(Cl)cc7Cl)O6)cc5)CC4)cc3)c2=O)cc1 [Compound 7q, cis-(2S,4R)-4-[4-[4-[4-[[2-(2,4-Dichlorophenyl)-2-(1H-1,2,4-triazol-1-ylmethyl)-1,3-dioxolan-4-yl]methoxy]phenyl]-piperazinyl]phenyl]-2,4-dihydro-2-(6-(4-benzoylphenoxy)hexyl)-3H-1,2,4-triazol-3-one] | − | 0.8 |  | − (≥0.45) | 
9 | CCC(C)n1ncn(-c2ccc(N3CCN(c4ccc(OCC5CO[C@@](Cn6cncn6)(c6ccc(Cl)cc6Cl)O5)cc4)CC3)cc2)c1=O (stereo partly shown) [Compound 46a] |  |  |  |  | IC50 (HUVEC): 155 nM
10 | CCC(C)n1ncn(-c2ccc(N3CCN(c4ccc(OCC5CO[C@](Cn6cncn6)(c6ccc(Cl)cc6Cl)O5)cc4)CC3)cc2)c1=O (stereo partly shown) [Compound 46b] |  |  |  |  | IC50 (HUVEC): 236 nM
11 | CCC(C)n1ncn(-c2ccc(N3CCN(c4ccc(OCC5CO[C@@](Cn6cncn6)(c6ccc(Cl)cc6Cl)O5)nc4)CC3)c(C)c2)c1=O (stereo partly shown) [Compound 47a] |  |  |  |  | IC50 (HUVEC): 155 nM
12 | CS(=O)(=O)c1ccc(C(=O)Nc2ccc(Cl)c(-c3ccccn3)c2)c(Cl)c1 [GDC-0449, reference compound] |  |  |  |  | inhibition of MB proliferation [1]: Dose-dependent inhibition; inhibition of Gli1 transcript levels (Gli1 transcript): Dose-dependent inhibition
13 | CC[C@@H](C)n1ncn(-c2ccc(N3CCN(c4ccc(OCC5CO[C@@](Cn6cncn6)(c6ccc(Cl)cc6Cl)O5)cc4)CC3)cc2)c1=O (stereo partly shown) [Itraconazole C, reference compound] |  |  |  |  | IC50 (HUVEC): 152 nM
14 | CC(=O)N1CCN(c2ccc(OCC3COC(Cn4ccnc4)(c4ccc(Cl)cc4Cl)O3)cc2)CC1 (stereo not shown) [ketoconazole, reference compound] |  |  |  |  | VEGFR2 glycosylation defect (VEGFR2): fail to induce the VEGFR2 glycosylation defect; inhibition of HUVEC proliferation (HUVEC): do not inhibit proliferation
15 | CC(C)N1CCN(c2ccc(OCC3COC(Cn4cncn4)(c4ccc(Cl)cc4Cl)O3)cc2)CC1 (stereo not shown) [terconazole, reference compound] |  |  |  |  | VEGFR2 glycosylation defect (VEGFR2): fail to induce the VEGFR2 glycosylation defect; inhibition of HUVEC proliferation (HUVEC): do not inhibit proliferation
16 | HhAntag [reference compound] |  |  |  |  | inhibition of MB proliferation [1]: Dose-dependent inhibition; inhibition of Gli1 transcript levels (Gli1 transcript): Dose-dependent inhibition
